The values that follow come from ChEMBL document CHEMBL1201862, “PubChem BioAssay data set” (2004).

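1) Cells in 96-well plates. 2) Compound, 48 h, 5 concentrations. 3) Linear interpolation between surrounding doses. 4) Unreached endpoint = highest concentration. GI50 = concentration required for 50% inhibition of growth.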 Activity calls are given as the source filed them. No stated cut-off is given here; in the data, active = GI50 up to about 1.1 µM and inactive = higher. Bounds are passed on as bounds.

Among the test systems are OVCAR-5; HCT-15; HCC 2998; HT-29; UACC-257; UACC-62; K562; SNB-75; CCRF-CEM; Malme-3M; SNB-19; OVCAR-8; DU-145; MDA-MB-231; NCI-H460; SK-MEL-5; ACHN.
Holding throughout (test): NCI-60 cell line screen, 48 h

Regarding `COc1cc2c3cc1Oc1c(OC)c(OC)cc4c1C(Cc1ccc(O)c(c1)Oc1ccc(cc1)CC3N(C)CC2)CN(C)C4` (stereo not drawn), the GI50 with OVCAR-5 was 21.5 µM (inactive); in the assay with HCT-15, 14 µM; with HCC 2998 it was 3.44 µM (inactive); in the assay on HT-29 it was 3.24 µM (inactive); with UACC-257, 13.5 µM (inactive); in the assay with UACC-62 it was 18.1 µM (inactive). For the same compound, the GI50 in the assay on K562 was 5.22 µM (inactive); in the assay with SNB-75 it was 14.2 µM (inactive); in the assay on CCRF-CEM, 2.07 µM (inactive); with Malme-3M, 16.8 µM (inactive); in the assay on SNB-19, 24.3 µM (inactive); in the assay on OVCAR-8, 15 µM (inactive). Moreover, the GI50 in the assay on DU-145 was 17.7 µM (inactive); with MDA-MB-231, 12.2 µM (inactive); in the assay on NCI-H460, 16 µM (inactive); in the assay with SK-MEL-5, 13.5 µM (inactive); in the assay on ACHN, 27.4 µM (inactive).

Turning to `O=C1CNNC(CSc2nc3ccc(I)cc3c(=O)n2Cc2ccccc2)=N1`, the GI50 was 41.2 µM (inactive) with OVCAR-5; 32 µM with HCT-15; 27 µM (inactive) in the assay on HCC 2998; 33.7 µM (inactive) with HT-29; 26.4 µM (inactive) in the assay on UACC-257; 15.8 µM (inactive) in the assay on UACC-62. The GI50 in the assay with K562 is 23.7 µM (inactive); in the assay on SNB-75 it was 11.6 µM (inactive); with CCRF-CEM, 15.4 µM (inactive); in the assay with Malme-3M, 23.9 µM (inactive); in the assay with SNB-19, 53.5 µM (inactive); with OVCAR-8, 26.5 µM (inactive). In addition, the GI50 is 22.2 µM (inactive) with DU-145; 14.5 µM (inactive) in the assay on MDA-MB-231; 30.9 µM (inactive) with NCI-H460; 15.7 µM (inactive) in the assay on SK-MEL-5; 16.3 µM (inactive) with ACHN.

Turning to `Cc1cc2c(cc1C)C(=O)c1ncccc1C2=O`, the GI50 is 21.1 µM (inactive) in the assay with OVCAR-5; 26.5 µM in the assay on HCT-15; 33.4 µM (inactive) in the assay with HCC 2998; 23.3 µM (inactive) in the assay with HT-29; 18.7 µM (inactive) in the assay with UACC-257; 30.3 µM (inactive) with UACC-62. The GI50 in the assay with K562 is 17.5 µM (inactive); in the assay on SNB-75 it was 54.5 µM (inactive); in the assay with CCRF-CEM it was 30.4 µM (inactive); with Malme-3M it was 7.85 µM (inactive); in the assay with SNB-19, 34.8 µM (inactive); in the assay on OVCAR-8, 31.9 µM (inactive). Besides, the GI50 with DU-145 is 24.2 µM (inactive); with MDA-MB-231, 22.6 µM (inactive); in the assay with NCI-H460, 7.91 µM (inactive); in the assay on SK-MEL-5, 7 µM (inactive); in the assay with ACHN, 37.2 µM (inactive).

Take `c1ccc2c(c1)CCc1c-2n(CCN2CCCCC2)c2ccccc12`: the GI50 with OVCAR-5 was 15.5 µM (inactive); in the assay with HCT-15, 10.6 µM; in the assay with HCC 2998 it was 13.1 µM (inactive); in the assay on HT-29 it was 8.2 µM (inactive); with UACC-257, 17.2 µM (inactive); with UACC-62 it was 14.8 µM (inactive). Moreover, the GI50 in the assay with K562 was 9.75 µM (inactive); in the assay with SNB-75, 16.4 µM (inactive); in the assay on CCRF-CEM it was 15.6 µM (inactive); with Malme-3M it was 24.7 µM (inactive); in the assay with SNB-19, 26 µM (inactive); with OVCAR-8 it was 17.7 µM (inactive). Further, the GI50 in the assay on DU-145 was 39.4 µM (inactive); in the assay with MDA-MB-231 it was 13.2 µM (inactive); in the assay with NCI-H460, 15.6 µM (inactive); in the assay with SK-MEL-5, 0.564 µM (active); with ACHN, 18.7 µM (inactive).

Consider `CC(=O)N1c2ccccc2C23CCN4CC5=CCOC(O)C(C5CC42)C13` (stereo not drawn), for which the GI50 was > 100 µM (inactive) with OVCAR-5; more than 100 µM in the assay with HCT-15; > 100 µM (inactive) with HCC 2998; > 100 µM (inactive) in the assay on HT-29; > 100 µM (inactive) with UACC-257; > 100 µM (inactive) in the assay on UACC-62. Also, the GI50 in the assay with K562 is 31.9 µM (inactive); in the assay on SNB-75, > 100 µM (inactive); in the assay with CCRF-CEM it was > 100 µM (inactive); in the assay on Malme-3M, > 100 µM (inactive); in the assay with SNB-19, > 100 µM (inactive); in the assay on OVCAR-8 it was > 100 µM (inactive). Also, the GI50 in the assay on DU-145, in the assay on MDA-MB-231, with NCI-H460, in the assay on SK-MEL-5 and in the assay on ACHN was > 100 µM (inactive) throughout.

As for `Cn1ncc2c(NCc3ccccc3)ncnc21`, the GI50 in the assay on OVCAR-5 is > 100 µM (inactive); in the assay on HCT-15 it was more than 100 µM; in the assay with HCC 2998 it was > 100 µM (inactive); in the assay on HT-29 it was > 100 µM (inactive); in the assay with UACC-257 it was > 100 µM (inactive); in the assay on UACC-62 it was > 100 µM (inactive). The GI50 with K562 is > 100 µM (inactive); with SNB-75, 50.6 µM (inactive); with CCRF-CEM, > 100 µM (inactive); with Malme-3M it was > 100 µM (inactive); in the assay on SNB-19, > 100 µM (inactive); in the assay on OVCAR-8 it was > 100 µM (inactive). Besides, the GI50 in the assay with DU-145, with MDA-MB-231, with NCI-H460, in the assay with SK-MEL-5 and with ACHN was > 100 µM (inactive) throughout.

For the compound `COC(=O)c1cc(C)ccc1C1CN=NC12Cc1c(C)cc(C)cc1C2=O` (stereo not drawn), the GI50 was 29.4 µM (inactive) in the assay with OVCAR-5; 22.5 µM in the assay on HCT-15; 26.5 µM (inactive) in the assay on HCC 2998; 18.3 µM (inactive) with HT-29; 23.9 µM (inactive) with UACC-257; 16.9 µM (inactive) in the assay with UACC-62. Besides, the GI50 in the assay on K562 was 18.4 µM (inactive); with SNB-75, 23.9 µM (inactive); with CCRF-CEM, 26.5 µM (inactive); in the assay on Malme-3M, 11.8 µM (inactive); in the assay with SNB-19, 31 µM (inactive); in the assay on OVCAR-8, 33.8 µM (inactive). In addition, the GI50 was 28.4 µM (inactive) with DU-145; 19.7 µM (inactive) in the assay with MDA-MB-231; 18.1 µM (inactive) in the assay on NCI-H460; 17 µM (inactive) in the assay on SK-MEL-5; 40.5 µM (inactive) with ACHN.

Turning to `Nc1c2c(nc3ccccc13)-c1ccccc1CCC2`, the GI50 in the assay on OVCAR-5 is 13 µM (inactive); in the assay with HCT-15, 14.3 µM; in the assay on HCC 2998 it was 3.08 µM (inactive); in the assay on HT-29, 10.3 µM (inactive); with UACC-257, 5.94 µM (inactive); in the assay on UACC-62, 10.7 µM (inactive). Besides, the GI50 was 6.65 µM (inactive) in the assay with K562; 10.2 µM (inactive) in the assay on SNB-75; 13.5 µM (inactive) with CCRF-CEM; 14.4 µM (inactive) with Malme-3M; 17.7 µM (inactive) with SNB-19; 15 µM (inactive) in the assay with OVCAR-8. In addition, the GI50 was 15.5 µM (inactive) in the assay on DU-145; 13.8 µM (inactive) in the assay on MDA-MB-231; 4.89 µM (inactive) with NCI-H460; 7.91 µM (inactive) in the assay on SK-MEL-5; 13.7 µM (inactive) with ACHN.

`CC(=O)OCC1OC(n2c(-c3ccccc3)c(C(C)=O)c(-c3ccc(Cl)cc3)c(C#N)c2=S)C(OC(C)=O)C(OC(C)=O)C1OC(C)=O` (stereo not drawn): the GI50 in the assay with OVCAR-5 was > 100 µM (inactive); with HCT-15, 11.6 µM; in the assay with HCC 2998, > 100 µM (inactive); in the assay with HT-29, > 100 µM (inactive); in the assay on UACC-257, > 100 µM (inactive); in the assay with UACC-62, > 100 µM (inactive). Also, the GI50 in the assay on K562 is > 100 µM (inactive); in the assay with SNB-75, 32.3 µM (inactive); in the assay on CCRF-CEM, 29.9 µM (inactive); with Malme-3M it was > 100 µM (inactive); with SNB-19, > 100 µM (inactive); in the assay on OVCAR-8 it was > 100 µM (inactive). In addition, the GI50 in the assay with DU-145 was > 100 µM (inactive); in the assay on MDA-MB-231 it was 70.3 µM (inactive); in the assay with NCI-H460 it was 26.8 µM (inactive); with SK-MEL-5 it was 21.2 µM (inactive); in the assay with ACHN it was > 100 µM (inactive).
